Experimental data reported in the METLIN SMRT retention time set (Domingo-Almenara et al. 2019).

Experiment: gradient 5% acetonitrile 3 min, to 50% in 2 min, to 85% in 15 min, held 3 min, 100 µL/min
Details: column: Zorbax Extend-C18 2.1 x 50 mm; eluents: water / acetonitrile, 0.1% formic acid
In short: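 Pure standards were analyzed in mixtures of ~100 molecules using HPLC coupled to a quadrupole time-of-flight mass spectrometer, in both positive and negative ionization mode. Separation used a Zorbax Extend-C18 column (2.1 × 50 mm, 1.8 μm) at 100 μL/min, with water and acetonitrile each containing 0.1% formic acid. Dead and dwell volumes were 40 μL and 900 μL, and data were collected over 3 months. Retention time was read from computationally picked adduct peaks, each inspected manually.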

In order of rising RP-LC retention time:
1. Cn1c(=O)c(N2CCCC(C(=O)NCCCN3CCC(N4CCCCC4)CC3)C2)nc2cccnc21 (centres undefined)  568 s
2. CC(NC(=O)c1n[nH]c2ccccc12)C(=O)N1CCN(c2ccccn2)CC1 (centres undefined)  595 s
3. O=C(CCC[C@@H]1[C@H]2CCCN3CCC[C@@H](CN1C(=O)c1cc(F)cc(F)c1)[C@@H]23)N1CCOCC1  605 s
4. COCc1noc([C@@H]2CN(C(=O)C3CC=CC3)C[C@H]2C(N)=O)n1  609 s
5. COc1ccc(C(F)(F)F)cc1NC(=O)C1CCCN(c2ccc(-n3ccnc3)nn2)C1 (centres undefined)  609 s
6. COCC1CN(Cc2cn[nH]c2-c2ccc(OC)cc2)CCC1(F)F (centres undefined)  624 s
7. CCCCN(CC)C(=O)Cn1nc(Cc2ccncc2)c2ccccc2c1=O  624 s
8. Cc1ccc(S(=O)(=O)Nc2ccncc2)c(C)c1N(C)S(=O)(=O)c1ccc(F)cc1  625 s
9. Cc1cc(C)c2[nH]c3c(c(=O)c2c1)CN(CC(=O)Nc1cccc(F)c1)CC3  640 s
10. COc1ncccc1C(=O)Nc1onc2c1CSC2  642 s
11. c1ccc2cc(CC3=NCCN3)ccc2c1  649 s
12. Cc1cccc(-c2nnc(C)c(N3CCC4(CC3)OCCO4)n2)c1  673 s
13. Cc1ccc(-n2nc3c(N4CCN(C(=O)NC(C)C)CC4)nnc(C)c3c2C)cc1  675 s
14. O=C(c1cn(-c2ccc(-c3nc(C4CC4)no3)cn2)cn1)N1CCCC1  676 s
15. Cc1oc(C2CCN(C(=O)C3CCN(S(=O)(=O)N4CCOCC4)CC3)CC2)nc1C(=O)N1CCCC1  677 s
16. N#Cc1cccc(-c2cn3c(n2)N(C(=O)c2cccs2)CCC3)c1  684 s
17. Clc1ccc(-c2ccc(CNCc3ccccn3)o2)cc1  689 s
18. Cc1ccc(C)n1-c1c(C(=O)N2CCN(c3ccccn3)CC2)sc2ncccc12  690 s
19. O=C(Nc1ccccc1C(F)(F)F)N1CC(n2cnnc2-c2ccccc2)C1  710 s
20. CCNc1nc(C)cc(N2CCN(S(=O)(=O)c3ccc(OC)c(C)c3)CC2)n1  723 s
21. O=C(NCCCN1CCCC1=O)c1ccc2nc(Cc3ccccc3)oc2c1  731 s
22. Cc1ccccc1NC(=O)N1CCC(n2cnc3c(C)cccc3c2=O)CC1  754 s
23. CCn1c(=O)n(CC)c2cc(S(=O)(=O)c3ccc(C)cc3)c(NC(C)=O)cc21  759 s
24. COc1ccc(-c2cn3c(CC(=O)Nc4nc5ccc(C)cc5s4)csc3n2)cc1OC  783 s
25. COC1CN(c2cccc(F)c2)C12CCN(CC1CCCCC1)CC2 (centres undefined)  806 s
26. COc1ccccc1NC(=O)Cn1ccc2ccc(-c3nnc(C)o3)cc21  811 s
27. O=C(NCC(=O)N1CCCc2ccccc21)c1cccc(Br)c1  822 s
28. O=C(CN1CCN(c2ccccc2)CC1)Nc1nc(-c2ccc(Cl)cc2)cs1  834 s
29. COc1ccc(-c2c(C)noc2NC(C)=O)cc1S(=O)(=O)NCC(C)c1ccccc1 (centres undefined)  838 s
30. O=C(NCc1ccccc1Cl)c1ccc(NC(=O)C2CCC2)cc1N1CCOCC1  873 s
31. COc1ccc(OC)c(S(=O)(=O)N2CCC(n3cnc4ccc(C)cc4c3=O)CC2)c1  881 s
32. CCOc1ccccc1C(=O)N1CCCC1c1nc(-c2ccccc2OC)no1 (centres undefined)  886 s
33. COC(=O)c1ccc2c(=O)n(-c3cc(OC)cc(OC)c3)c(N3CCOCC3)nc2c1  903 s
34. O=C([C@@H]1C[C@H](F)CN1S(=O)(=O)c1cc(F)ccc1F)N1CCc2ccccc2C1  906 s
35. CCN(CC)c1nc2ccsc2c(=O)n1CCC(=O)N1CCN(c2ccccc2)CC1  919 s
36. CCC(C)NC(=O)c1c2c(cn(-c3ccc(F)cc3)c1=O)C(=O)CC(C)(C)C2 (centres undefined)  920 s
37. CCn1ccc2cc(S(=O)(=O)N3CCCC(C(=O)NCCc4ccco4)C3)ccc21 (centres undefined)  925 s
38. Cc1nc(N2CCN(C(=O)CCCc3ccccc3)CC2)cc(-n2cccn2)n1  928 s
39. COc1ccc(-c2nnc(-c3ccc(C)c(S(=O)(=O)N4CCCC4)c3)o2)cc1OC  937 s
40. CCCCN(C)C(=O)Cn1cncc(-c2nc(-c3ccccc3)cs2)c1=O  946 s
41. CCCn1cc(CCNS(=O)(=O)Cc2cc(C)ccc2C)c2cccnc21  946 s
42. O=C(Cn1cccc1-c1nnc(C2CCC2)o1)Nc1ccc(F)c(Cl)c1  965 s
43. Cc1cc2nc(C(=O)Nc3ccccc3F)cc(C)n2n1  1000 s
44. CCn1c(C(=O)NCc2ccc(F)cc2)cc2sccc21  1010 s
